Test results from US10173991B2, “Sulfone amide linked benzothiazole inhibitors of endothelial lipase” (BRISTOL-MYERS SQUIBB COMPANY, priority 2014, dated 2019).

Target: Endothelial lipase (EL) (Homo sapiens (Human), UniProt Q9Y5X9)
Assay: Endothelial lipase (EL) enzymatic assay with fluorescent substrate A10070 in DMPG vesicles
Type: biochemical
Method in brief: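 Substrate A10070 sits in sonicated DMPG vesicles at 0.11 mole fraction. Lipase and compound preincubated 30 min, 37° C, in HEPES pH 8.0 buffer with CaCl2.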

Chain of Endothelial lipase (EL) (Q9Y5X9 21-500): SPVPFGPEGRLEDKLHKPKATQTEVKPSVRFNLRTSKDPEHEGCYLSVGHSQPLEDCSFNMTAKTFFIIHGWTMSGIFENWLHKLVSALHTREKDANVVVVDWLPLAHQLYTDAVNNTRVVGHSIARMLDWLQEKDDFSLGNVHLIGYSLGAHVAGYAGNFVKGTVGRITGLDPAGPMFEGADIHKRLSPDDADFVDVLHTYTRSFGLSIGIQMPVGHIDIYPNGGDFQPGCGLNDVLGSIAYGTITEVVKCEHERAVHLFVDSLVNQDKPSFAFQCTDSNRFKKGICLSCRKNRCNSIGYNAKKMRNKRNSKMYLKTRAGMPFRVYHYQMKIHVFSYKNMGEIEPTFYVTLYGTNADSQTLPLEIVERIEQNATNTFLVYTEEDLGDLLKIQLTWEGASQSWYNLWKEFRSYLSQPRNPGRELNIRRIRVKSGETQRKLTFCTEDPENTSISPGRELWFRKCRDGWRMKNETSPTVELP

| SMILES | IC50 |
| --- | --- |
| COCCS(=O)(=O)C(C(=O)NCC(=O)NC1CC1)c1nc2c(F)cc(-c3cnc(OC)c(F)c3)cc2s1 (centres unmarked) [Example 206, N-[(cyclopropyl-carbamoyl)methyl]-2-[4-fluoro-6-(5-fluoro-6-methoxypyridin-3-yl)-1,3-benzothiazol-2-yl]-2-(2-methoxyethane-sulfonyl) acetamide] | 9 nM |
| Cc1cc2nc(C(C(=O)NCC(=O)NC3CC3)S(=O)(=O)C(C)C)sc2cc1-c1ccc(=O)n(C(C)C)c1 (centres unmarked) [Example 207, N-[(cyclopropyl-carbamoyl)methyl]-2-{5-methyl-6-[6-oxo-1-(propan-2-yl)-1,6-dihydropyridin-3-yl]-1,3-benzothiazol-2-yl}-2-(propane-2-sulfonyl) acetamide] | 10 nM |
| COCCS(=O)(=O)C(C(=O)NCC(=O)NC1CC1)c1nc2c(F)cc(-c3ccc(C(=O)N4CCOCC4)cc3)cc2s1 (centres unmarked) [Example 208, N-[(cyclopropyl-carbamoyl)methyl]-2-{4-fluoro-6-[4-(morpholine-4-carbonyl)phenyl]-1,3-benzothiazol-2-yl}-2-(2-methoxyethane-sulfonyl) acetamide] | 11 nM |
| Cc1cc2nc(C(C(=O)NCC(=O)NC3CC3)S(=O)(=O)C(C)C)sc2cc1-c1ccc(C(F)(F)F)nc1 (centres unmarked) [Example 209, N-[(cyclopropyl-carbamoyl)methyl]-2-{5-methyl-6-[6-(trifluoromethyl)pyridin-3-yl]-1,3-benzothiazol-2-yl}-2-(propane-2-sulfonyl) acetamide] | 11 nM |
| COCCNC(=O)c1cccc(-c2cc3sc(C(C(=O)NCC(=O)NC4CC4)S(=O)(=O)C(C)C)nc3cc2C)c1 (centres unmarked) [Example 210, 3-[2-({[(cyclopropyl-carbamoyl)methyl]carbamoyl} (propane-2-sulfonyl)methyl)-5-methyl-1,3-benzothiazol-6-yl]-N-(2-methoxyethyl) benzamide] | 12 nM |
| COc1ncc(-c2cc3sc(C(C(=O)NCC(=O)NC4CC4)S(=O)(=O)C(C)C)nc3cc2C)cc1F (centres unmarked) [Example 211, N-[(cyclopropyl-carbamoyl)methyl]-2-[6-(5-fluoro-6-methoxypyridin-3-yl)-5-methyl-1,3-benzothiazol-2-yl]-2-(propane-2-sulfonyl) acetamide] | 14 nM |
| Cc1ncc(-c2cc3sc(C(C(=O)NCC(=O)NC4CC4)S(=O)(=O)C(C)C)nc3cc2C)cn1 (centres unmarked) [Example 212, N-[(cyclopropyl-carbamoyl)methyl]-2-[5-methyl-6-(2-methylpyrimidin-5-yl)-1,3-benzothiazol-2-yl]-2-(propane-2-sulfonyl) acetamide] | 15 nM |
| O=C(CNC(=O)C(c1nc2ccc(-c3ccc(C(=O)N4CCOCC4)cc3)cc2s1)S(=O)(=O)Cc1ccc(F)cc1)NC1CC1 (centres unmarked) [Example 213, N-[(cyclopropyl-carbamoyl)methyl]-2-[(4-fluorophenyl)methanesulfonyl]-2-{6-[4-(morpholine-4-carbonyl)phenyl]-1,3-benzothiazol-2-yl}acetamide] | 15 nM |
| CN(C)C(=O)c1ccc(-c2ccc3nc(C(C(=O)NCC(=O)NC4CC4)S(=O)(=O)Cc4ccc(F)cc4)sc3c2)cc1 (centres unmarked) [Example 214, 4-[2-({[(cyclopropyl-carbamoyl)methyl]carbamoyl}(4-fluorophenyl)methanesulfonyl-methyl)-1,3-benzothiazol-6-yl]-N,N-dimethyl-benzamide] | 18 nM |
| Cc1cc2nc(C(C(=O)NCC(=O)NC3CC3)S(=O)(=O)C(C)C)sc2cc1-c1ccc(C(=O)N(C)C)cc1 (centres unmarked) [Example 215, 4-[2-({[(cyclopropyl-carbamoyl)methyl]carbamoyl} (propane-2-sulfonyl)methyl)-5-methyl-1,3-benzothiazol-6-yl]-N,N-dimethyl-benzamide] | 19 nM |
| COCCS(=O)(=O)C(C(=O)NCC(=O)NC1CC1)c1nc2c(F)cc(-c3ccc4[nH]c(=O)ccc4c3)cc2s1 (centres unmarked) [Example 216, N-[(cyclopropyl-carbamoyl)methyl]-2-[4-fluoro-6-(2-oxo-1,2-dihydroquinolin-6-yl)-1,3-benzothiazol-2-yl]-2-(2-methoxyethane-sulfonyl) acetamide] | 19 nM |
| COCCS(=O)(=O)C(C(=O)NCC(=O)NC1CC1)c1nc2c(F)cc(-c3ccc(C(F)(F)F)nc3)cc2s1 (centres unmarked) [Example 217, N-[(cyclopropyl-carbamoyl)methyl]-2-{4-fluoro-6-[6-(trifluoromethyl)pyridin-3-yl]-1,3-benzothiazol-2-yl}-2-(2-methoxyethane-sulfonyl) acetamide] | 26 nM |
| COCCNC(=O)c1ccc(-c2cc(F)c3nc(C(C(=O)NCC(=O)NC4CC4)S(=O)(=O)CCOC)sc3c2)cc1 (centres unmarked) [Example 218, 4-[2-({[(cyclopropyl-carbamoyl)methyl]carbamoyl}(2-methoxyethane-sulfonyl)methyl)-4-fluoro-1,3-benzothiazol-6-yl]-N-(2-methoxyethyl) benzamide] | 28 nM |
| COCCS(=O)(=O)C(C(=O)NCC(=O)NC1CC1)c1nc2cc(OC)c(-c3cccnc3F)cc2s1 (centres unmarked) [Example 219, N-[(cyclopropyl-carbamoyl)methyl]-2-[6-(2-fluoropyridin-3-yl)-5-methoxy-1,3-benzothiazol-2-yl]-2-(2-methoxyethane-sulfonyl) acetamide] | 39 nM |
| COCCS(=O)(=O)C(C(=O)NCC(=O)NC1CC1)c1nc2c(F)cc(-c3ccn(C)c(=O)c3)cc2s1 (centres unmarked) [Example 220, N-[(cyclopropyl-carbamoyl)methyl]-2-[4-fluoro-6-(1-methyl-2-oxo-1,2-dihydropyridin-4-yl)-1,3-benzothiazol-2-yl]-2-(2-methoxyethane-sulfonyl) acetamide] | 60 nM |
| COCCS(=O)(=O)C(C(=O)NCC(=O)NC1CC1)c1nc2c(F)cc(-c3cncnc3)cc2s1 (centres unmarked) [Example 221, N-[(cyclopropyl-carbamoyl)methyl]-2-[4-fluoro-6-(pyrimidin-5-yl)-1,3-benzothiazol-2-yl]-2-(2-methoxyethane-sulfonyl) acetamide] | 61 nM |
| CC(C)(C)OC(=O)N1CCC(S(=O)(=O)C(C(=O)NCC(=O)NC2CC2)c2nc3ccc(-c4ccc(F)nc4)cc3s2)CC1 (centres unmarked) [Example 222, tert-butyl 4-({[(cyclopropyl-carbamoyl)methyl]carbamoyl}[6-(6-fluoropyridin-3-yl)-1,3-benzothiazol-2-yl]methanesulfonyl) piperidine-1-carboxylate] | 78 nM |
| COCCS(=O)(=O)C(C(=O)NCC(=O)NC1CC1)c1nc2c(F)cc(-c3cnc(C4CC4)nc3)cc2s1 (centres unmarked) [Example 223, N-[(cyclopropyl-carbamoyl)methyl]-2-[6-(2-cyclopropyl-pyrimidin-5-yl)-4-fluoro-1,3-benzothiazol-2-yl]-2-(2-methoxyethane-sulfonyl) acetamide] | 80 nM |
| CN(C)c1ccc(-c2ccc3nc(C(C(=O)NCC(=O)NC4CC4)S(=O)(=O)Cc4ccc(F)cc4)sc3c2)cn1 (centres unmarked) [Example 224, N-[(cyclopropyl-carbamoyl)methyl]-2-{6-[6-(dimethylamino)pyridin-3-yl]-1,3-benzothiazol-2-yl}-2-[(4-fluorophenyl)methanesulfonyl] acetamide] | 86 nM |
| COCCS(=O)(=O)C(C(=O)NCC(=O)NC1CC1)c1nc2c(F)cc(-c3ccc(=O)n(C(C)C)c3)cc2s1 (centres unmarked) [Example 225, N-[(cyclopropyl-carbamoyl)methyl]-2-{4-fluoro-6-[6-oxo-1-(propan-2-yl)-1,6-dihydropyridin-3-yl]-1,3-benzothiazol-2-yl}-2-(2-methoxyethane-sulfonyl) acetamide] | 88 nM |
